Consider nine molecules from patent US20060287316A1, “METHOD FOR IMPROVING PHARMACOKINETICS OF PROTEASE INHIBITORS AND PROTEASE INHIBITOR PRECURSORS” (priority 2005, published 2006).

Read-outs that look alike come from different tables or passages of the source.

Data set [1] relates to laboratory adapted HIV strain (NL4-3). Kind of data set: microbe, parasite or virus in culture. As to conditions: for EC50: Human immunodeficiency virus 1, NL43, MT4, MT4 cells infected with NL4-3; for SI (CC50/EC50): ratio of cytotoxicity (CC50) to antiviral activity (EC50). As for the experimental part:
Briefly, the antiviral activity of PL-100 was determined using MT4 cells infected with a laboratory adapted HIV strain (NL4-3). For comparison, seven approved protease inhibitors (PIs) were tested in parallel.
The effect of 40% human serum on the antiviral activity of PL-100 in MT4 cells infected with NL4-3 was therefore evaluated.

The nature of data set [2]: Cytotoxicity in the same cell culture system. As to conditions: human, MT4 cells. The data set is classed as cell-based. As for the experimental part:
Cytotoxicity of PL-100 and other P is was evaluated in the same cell culture system. The selectivity index (SI) is the ratio of cytotoxicity (CC50) to antiviral activity (EC50). The selective index is similar to the therapeutic index but relates to in vitro studies.

Data set [3] concerns 63 HIV isolates with reduced susceptibility to all approved protease inhibitors. The data set is classed as cell-based, HIV-1. As to conditions: for % FC < 2.5 / % FC < 10 / % FC > 50 / Mean FC / Median FC: 63 diverse, multi-PI-resistant strains; for Mean FC / Median FC: FC in IC50 vs NL-4.3. From the text: The cross-resistance profile of PL-100 against 63 HIV isolates with reduced susceptibility to all approved protease inhibitors (P is) including atazanavir was thus tested.
The panel of 63 viral strains was selected based on the following rationale: 1) High-level loss of susceptibility to specific P is; 2) High-level loss of susceptibility to multiple P is; 3) Good representation of the primary mutations. This panel consists of resistant viruses from highly PI-experienced patients with high-level PI resistance.
The genotype of these viruses encompasses a wide variety of mutational patterns. We particularly looked for the following primary PI mutations: D30N, L33F/I, M461/L, G48V, I50L/V, V82A/F/S/T, I84V and L90M as defined by the International AIDS Society (IAS)-USA.
The dark cells indicate a […], the grey cells indicate FC values of 2.5≦FC<10 and the white cells indicate a FC value of; 0≦FC<2.5. The results of cross-resistance profile are further illustrated in the graph of FIG. 1.
In the cross-resistance profiling studies against the 63 resistant strains mentioned herein, EC95 of PL-100 was determined against each strain. The median EC95 represents the concentration required to inhibit 95% of the viral replication of 50% diverse drug-resistant HIV-1 variants tested. Table 8 illustrates the percentage of resistant strains tested with protein-binding adjusted EC95s≦200 ng/ml. The resistant strains are grouped by the number of primary mutations they have.
The EC95 of PL-100 was determined against each of the 63 resistant strains indicated herein. Table 9 illustrates the percentage of resistant strains tested with protein-binding adjusted EC95s≦630 ng/ml. The resistant strains are grouped by the number of primary mutations they have.

Data set [4] can be described thus: Plasma concentration after single oral dose in rats (in vivo cleavage of the phosphate group). Also noted: species or system male Sprague-Dawley rats. As to conditions: for AUC: 50 mg/Kg po, vehicle PBS, 3 rats, released active ingredient detected (PL-100 for PL-462, PL-337 for PL-515); for Detection of the administered phosphate compound in blood samples: 50 mg/kg po as aqueous solution. As for the experimental part:
To assess the extent of in vivo cleavage of the phosphate group from the putative compounds, PL-100, PL-462 (based on PL-100), PL-337 and PL-515 (based on PL-337) compounds were administered po (per os, (i.e., by mouth)) (50 mg/kg) to male Sprague-Dawley rats and their plasma concentration measured at different time intervals post-administration.
All test articles (PL-100, PL-462, PL-337 and PL-515) were prepared in different vehicle at the final concentration of 25 mg/mL. The vehicle composition is as follows: (1) 20% ethanol; 50% propylene glycol; 0.05% w/v Tween 20 and water (Mix); (2) PBS buffer (PBS).
Test articles were administered to male Sprague-Dawley rats at a single oral dose of 50 mg/kg. Each article was tested in three rats. Blood samples (0.2-0.3 mL) were collected at the post-dose time of 10, 20, 40, 60, 120, 180 and 360 minutes. The harvested blood was centrifuged to isolate plasma. The resulting plasma was separated and stored at −70° C.
Plasma samples together with standards and quality control samples were treated to precipitate proteins, then analyzed by HPLC-MS, for the presence of PL-462, PL-100, PL-515 and PL-337.

The mark [5] stands for this setting: sample O3-148709 (non-B subtype), 32I/47A, panel ID 1.
Setting [6] is: sample O4-148748, 37S/41K/70E, panel ID 115.
Where [7] appears, read: sample O4-148749, 37T/41K/70E, panel ID 151.
Where [8] appears, read: sample O4-148712, 46I/88S, panel ID 122.
The mark [9] stands for this setting: sample O4-148713, 46I/88S, panel ID 123.
[10] abbreviates: sample O3-129578, 46I/82T/84V, panel ID 11.

Regarding `CC(C)CN(C[C@@H](O)[C@H](Cc1ccccc1)NC(=O)O[C@H]1CCOC1)S(=O)(=O)c1ccc(N)cc1` [Amprenavir], in data set [1], the EC50 stood at 47 nM. The same molecule gave a CC50 in data set [2] of more than 100 µM. Further, in data set [3], the “% FC < 2.5” value is given as 14%, the “% FC < 10” value is 52%, the “% FC > 50” value is given as 8% and the “Mean FC” value stood at 18.5. In addition, in data set [3], the “Median FC” value is given as 9.7.

With `COC(=O)N[C@H](C(=O)N[C@@H](Cc1ccccc1)[C@@H](O)CN(Cc1ccc(-c2ccccn2)cc1)NC(=O)[C@@H](NC(=O)OC)C(C)(C)C)C(C)(C)C` [Atazanavir], in data set [1], it took 4 nM to reach a half-maximal effect (EC50) and the “SI (CC50/EC50)” value is reported as 13,750. It took 55 µM to reach half-maximal cytotoxicity in data set [2] (CC50). Moreover, in data set [3], the “% FC < 2.5” value was determined as 16%, the “% FC < 10” value is reported as 38%, the “% FC > 50” value is 22% and the “Mean FC” value is listed as 25.7. Moreover, in data set [3], the “Median FC” value stood at 15.6. The “Fold change in IC50 vs. Reference” value in data set [3] (setting [5]) was determined as 1. Besides, the “Fold change in IC50 vs. Reference” value in data set [3] (setting [6]) came to 1.4. Besides, in data set [3] (setting [7]), the “Fold change in IC50 vs. Reference” value stood at 1.5.

As for `CC(C)(C)NC(=O)[C@@H]1CN(Cc2cccnc2)CCN1C[C@@H](O)C[C@@H](Cc1ccccc1)C(=O)N[C@H]1c2ccccc2C[C@H]1O` [Indinavir], the EC50 in data set [1] is 67 nM. For the same molecule, the CC50 in data set [2] was more than 100 µM. Besides, in data set [3], the “% FC < 2.5” value was determined as 13%, the “% FC < 10” value is listed as 54%, the “% FC > 50” value is given as 5% and the “Mean FC” value came out at 16.5. In data set [3], the “Median FC” value worked out at 8.1.

Regarding `Cc1cccc(C)c1OCC(=O)N[C@@H](Cc1ccccc1)[C@@H](O)C[C@H](Cc1ccccc1)NC(=O)[C@H](C(C)C)N1CCCNC1=O` [Lopinavir], in data set [1], a half-maximal effect (EC50) was put at 19 nM and the “SI (CC50/EC50)” value is on record as 1,474. In data set [2], the CC50 was 28 µM. In data set [3], the “% FC < 2.5” value is recorded as 10%, the “% FC < 10” value was determined as 37%, the “% FC > 50” value is listed as 19% and the “Mean FC” value is 31.3. The “Median FC” value in data set [3] is listed as 17.9. The “Fold change in IC50 vs. Reference” value in data set [3] (sample O3-129586, 30N/88D/90M, panel ID 28) amounted to 1.2. Moreover, the “Fold change in IC50 vs. Reference” value in data set [3] (setting [8]) is on record as 1.7. Further, in data set [3] (setting [9]), the “Fold change in IC50 vs. Reference” value is listed as 0.7. Moreover, the “Fold change in IC50 vs. Reference” value in data set [3] (setting [6]) is recorded as 1. In data set [3] (setting [7]), the “Fold change in IC50 vs. Reference” value is reported as 1.3.

`Cc1c(O)cccc1C(=O)N[C@@H](CSc1ccccc1)[C@H](O)CN1C[C@H]2CCCC[C@H]2C[C@H]1C(=O)NC(C)(C)C` [Nelfinavir]: in data set [1], the EC50 was 29 nM and the “SI (CC50/EC50)” value was determined as 276. In data set [2], this molecule gave a CC50 of 8 µM. Also, in data set [3], the “% FC < 2.5” value amounted to 10%, the “% FC < 10” value stood at 27%, the “% FC > 50” value is reported as 10% and the “Mean FC” value worked out at 31.7. The “Median FC” value in data set [3] is on record as 15. Further, the “Fold change in IC50 vs. Reference” value in data set [3] (setting [10]) was 1.6. Also, the “Fold change in IC50 vs. Reference” value in data set [3] (setting [9]) turned out to be 4.6. Also, in data set [3] (setting [6]), the “Fold change in IC50 vs. Reference” value is recorded as 1.6. The “Fold change in IC50 vs. Reference” value in data set [3] (setting [7]) was determined as 1.9.

With `COC(=O)N[C@H](C(=O)NCCCC[C@@H](COP(=O)(O)O)N(CC(C)C)S(=O)(=O)c1ccc(N)cc1)C(c1ccccc1)c1ccccc1.[Na]` [PL-462, (1S,5S)-(1-{5-[(4-amino-benzenesulfonyl)-isobutyl-amino]-6-phosphonooxy-hexylcarbamoyl}-2,2-diphenyl-ethyl)-carbamic Acid Methyl Ester Sodium Salt], in data set [4], the AUC is given as 0.816 ± 0.295 μg/hr * ml; the “Detection of the administered phosphate compound in blood samples” value was “None of the PL-462 and PL-515 compounds, delivered as aqueous solutions, are detected”.

In the case of `COC(=O)N[C@H](C(=O)NCCCC[C@@H](COP(=O)(O)O)N(CC(C)C)S(=O)(=O)c1ccc(N)c(F)c1)C(c1ccccc1)c1ccccc1` [PL-515, (1S,5S)-(1-{5-[(4-amino-3-fluoro-benzenesulfonyl)-isobutyl-amino]-6-phosphonooxy-hexylcarbamoyl}-2,2-diphenyl-ethyl)-carbamic acid methyl ester], in data set [4], the AUC stood at 1.075 ± 0.625 μg/hr * ml; the “Detection of the administered phosphate compound in blood samples” value is “None of the PL-462 and PL-515 compounds, delivered as aqueous solutions, are detected”.

In data set [1], `CC(C)c1nc(CN(C)C(=O)N[C@H](C(=O)N[C@@H](Cc2ccccc2)C[C@H](O)[C@H](Cc2ccccc2)NC(=O)OCc2cncs2)C(C)C)cs1` [Ritonavir, ritonavir] registered an EC50 of 61 nM.

In turn, `CC(C)(C)NC(=O)[C@@H]1C[C@@H]2CCCC[C@@H]2CN1C[C@@H](O)[C@H](Cc1ccccc1)NC(=O)[C@H](CC(N)=O)NC(=O)c1ccc2ccccc2n1` [Saquinavir] returned an EC50 in data set [1] of 12 nM. In addition, the “SI (CC50/EC50)” value in data set [1] was 1,583. In data set [2], this molecule came in with a CC50 of 19 µM. The “% FC < 2.5” value in data set [3] is listed as 27%. In addition, in data set [3], the “% FC < 10” value is reported as 40%. In addition, the “% FC > 50” value in data set [3] came to 37%. For the same molecule, the “Mean FC” value in data set [3] was 85. For the same molecule, in data set [3], the “Median FC” value is given as 23.2. Moreover, the “Fold change in IC50 vs. Reference” value in data set [3] (sample O3-129573, 24I/33F/46I/54L/82A, panel ID 3) was found to be 1.5; in data set [3] (setting [10]), 1; in data set [3] (sample O3-129584, 33F/50V, panel ID 24) it was 1.7; in data set [3] (setting [5]), 0.2; in data set [3] (sample O4-148711, 46I/47A/84V, panel ID 119), 1.1; in data set [3] (setting [8]), 1.9. Moreover, the “Fold change in IC50 vs. Reference” value in data set [3] (sample O4-148712, 46I/88S, panel ID 124) worked out at 2; in data set [3] (setting [9]), 0.6; in data set [3] (sample O4-148721, 32I/46I/47V/50L, panel ID 127), 0.5; in data set [3] (sample O4-148725, 32I/46L/47V/84V, panel ID 53), 0.8; in data set [3] (sample O4-148745, 46I/50L/54V/82A, panel ID 99), 2.2; in data set [3] (setting [6]), 1.2. The “Fold change in IC50 vs. Reference” value in data set [3] (setting [7]) is on record as 1.2.

Usually EC50 stands for the concentration needed to bring the measured effect to its halfway point. Lower therefore signals a more potent agent. What is called CC50 is the concentration that lowers cell viability or growth by half. A low value points to greater toxicity to the cells.
